Assay results published in patent US5994342A, “3-(substituted methyl)-4-oxa-1-azabicyclo[3.2.0]heptan-7-one derivatives useful as antitumor agents” (priority 1994, dated 1999).
Converted amounts (≈) assume the structure as drawn. Where a name gives a salt, the structure may show the parent alone.

Key:
KB cells = test: In vitro KB cell cytotoxicity assay (crystal violet); format: cell-based; conditions: Homo sapiens, 72 h, 3 days culture, read-out: KB Cell Cytotoxicity TD50
Experimental: In Vitro KB Cell Cytotoxicity Assay In vitro KB cell cytoxocity assay was done by modification of the crystal violet assay ([…] et al., Anal Biochem., 159, 109-113 (1986). KB cells were cultivated in Eagles minimum essential medium supplemented with 10% calf serum and incubated at 37° C. in a humidified 5% CO2 atmosphere to prepare a cell stock. Cells were counted using a neubauer hemocytometer and seeded in 96 well plates at 100 μl of 3×10^4 cells/ml and cultured for one day. […] Control wells were identical except that test compound was absent. These were cultured for three days. Then the cells were fixed with addition of 20 μl of 25% glutaraldehyde for 15 minutes, washed with water and dried. Then stained with 100 μl of 0.05% crystal violet for 15 minutes, washed with water and dried. The wells are eluted with […] of 0.05M NaH2 PO4 /ethanol (1:1 v/v) and read at OD540 on a multiscan spectrophotometer. Inhibition value of cell growth was calculated based on optical density using the following equation; [formula] TD50 values were calculated from linear regression ines of the log-logit plot.

Sarcoma 180 = test: In vivo antitumor activity against Sarcoma 180; parameters: species or system male ICR mice; conditions: i.p., days 1, 5 and 9
Experimental: In Vivo Antitumor Activity Against Sarcoma 180
The compounds of general formula (I) were tested in vivo against Sarcoma 180 xenografted tumor to mice as illustrated herein after.
Sarcoma 180, 5×10^6 cells were inoculated by S.C. to male ICR mice (6 week old) on day 0. Drugs were administered on days 1, 5 and 9. Mice were killed and tumor weight was measured on day 12 after transplantation. The percentage inhibition of tumor growth was calculated from the mean tumor weight of the treated group compared with that of the control group. Number of mice used in each group was between 6 to 7.

[1] = Mus musculus, Sarcoma-180, ip, 288 h, 25 mg/kg/day, tumor s.c., tumor weight day 12, read-out: % Inhibition of tumor growth
[2] = Mus musculus, Sarcoma-180, ip, 288 h, 50 mg/kg/day, tumor s.c., tumor weight day 12, read-out: % Inhibition of tumor growth
[3] = Mus musculus, Sarcoma-180, ip, 288 h, 100 mg/kg/day, tumor s.c., tumor weight day 12, read-out: % Inhibition of tumor growth
[4] = Mus musculus, Sarcoma-180, ip, 288 h, 12.5 mg/kg/day, tumor s.c., tumor weight day 12, read-out: % Inhibition of tumor growth

SMILES	IC50 (KB cells) [µg/mL]	Mortality in 12 days (Sarcoma 180; 25 mg/kg/day)	Mortality in 12 days (Sarcoma 180; 50 mg/kg/day)	inhibition in vivo at 25 mg/kg (Sarcoma 180; [1]) [%]	inhibition in vivo at 50 mg/kg (Sarcoma 180; [2]) [%]	Mortality in 12 days (Sarcoma 180; 12.5 mg/kg/day)	inhibition in vivo at 12.5 mg/kg (Sarcoma 180; [4]) [%]	further results
CC(C)[C@H](N)C(=O)OC[C@H]1CN2C(=O)C[C@@H]2O1.Cl (mixture of isomers) [Example 54B, (3RS,5SR)-3-(L-2-Amino-3-methylbutyryl)oxymethyl-4-oxa-1-azabicyclo[3.2.0]heptan-7-one hydrochloride]	1.9	0/6	0/6	28.5	53.8			Mortality in 12 days (Sarcoma 180; 100 mg/kg/day): 0/6; inhibition in vivo at 100 mg/kg (Sarcoma 180; [3]): 84.3%
CCN(CC)C(=O)NC[C@@H]1CN2C(=O)C[C@H]2O1 (racemic) [Example 33, (3RS,5RS)-3-[N-(N,N-Diethylcarbamyl)]aminomethyl-4-oxa-1-azabicyclo[3.2.0]heptan-7-one]	0.246 (≈ 1.02 µM)							Mortality in 12 days (Sarcoma 180; 22.5 mg/kg/day): 0/6; Mortality in 12 days (Sarcoma 180; 45 mg/kg/day): 0/6; Mortality in 12 days (Sarcoma 180; 90 mg/kg/day): 0/6; inhibition in vivo at 22.5 mg/kg (Sarcoma 180; Mus musculus, Sarcoma-180, ip, 288 h, 22.5 mg/kg/day, tumor s.c., tumor weight day 12, read-out: % Inhibition of tumor growth): 46.6%; inhibition in vivo at 45 mg/kg (Sarcoma 180; Mus musculus, Sarcoma-180, ip, 288 h, 45 mg/kg/day, tumor s.c., tumor weight day 12, read-out: % Inhibition of tumor growth): 66.2%; inhibition in vivo at 90 mg/kg (Sarcoma 180; Mus musculus, Sarcoma-180, ip, 288 h, 90 mg/kg/day, tumor s.c., tumor weight day 12, read-out: % Inhibition of tumor growth): 74.5%
CC(=O)NC(COC(C)=O)C(=O)OC[C@H]1CN2C(=O)C[C@@H]2O1 (mixture of isomers) [Example 75B, (3RS,5SR)-3-(2-Acetamido-3-acetoxypropanoyl)oxymethyl-4-oxa-1-azabicyclo[3.2.0]heptan-7-one]	0.567 (≈ 1.8 µM)	0/6	4/6	65.1	77.8	0/6	37.8	
CCCCCC(=O)NC[C@@H]1CN2C(=O)C[C@H]2O1 (racemic) [Example 4, (3RS,5RS)-3-(N-Hexanoylaminomethyl)-4-oxa-1-azabicyclo[3.2.0]heptan-7-one]	0.312 (≈ 1.3 µM)							Mortality in 12 days (Sarcoma 180; 100 mg/kg/day): 0/6; inhibition in vivo at 100 mg/kg (Sarcoma 180; [3]): 49.4%
O=C(CCl)NC[C@@H]1CN2C(=O)C[C@H]2O1 (racemic) [Example 8, (3RS,5RS)-3-(N-Chloroacetylaminomethyl)-4-oxa-1-azabicyclo[3.2.0]heptan-7-one]	0.084 (≈ 0.384 µM)							Mortality in 12 days (Sarcoma 180; 8.8 mg/kg/day): 0/6; Mortality in 12 days (Sarcoma 180; 17.5 mg/kg/day): 0/6; Mortality in 12 days (Sarcoma 180; 35 mg/kg/day): 1/6; inhibition in vivo at 8.8 mg/kg (Sarcoma 180; Mus musculus, Sarcoma-180, ip, 288 h, 8.8 mg/kg/day, tumor s.c., tumor weight day 12, read-out: % Inhibition of tumor growth): 39%; inhibition in vivo at 17.5 mg/kg (Sarcoma 180; Mus musculus, Sarcoma-180, ip, 288 h, 17.5 mg/kg/day, tumor s.c., tumor weight day 12, read-out: % Inhibition of tumor growth): 51.3%; inhibition in vivo at 35 mg/kg (Sarcoma 180; Mus musculus, Sarcoma-180, ip, 288 h, 35 mg/kg/day, tumor s.c., tumor weight day 12, read-out: % Inhibition of tumor growth): 64%
N[C@@H](CC(=O)O)C(=O)NCC(=O)NCC1CN2C(=O)CC2O1 (stereo partly drawn) [Example 46B, (3RS,5RS)-3-N-[N-(L-2-Amino-3-carboxypropanoyl)aminoacetyl]aminomethyl-4-oxa-1-azabicyclo[3.2.0]heptan-7-one]	2.63 (≈ 8.37 µM)	0/6	1/6	55.7	76.9	0/6	44.7	
O=C1C[C@H]2O[C@H](CNC(=O)C(F)(F)F)CN12 (racemic) [Example 7, (3RS,5RS)-3-[N-(Trifluoroacetyl)aminomethyl]-4-oxa-1-azabicyclo[3.2.0]heptan-7-one]	0.205 (≈ 0.861 µM)							Mortality in 12 days (Sarcoma 180; 100 mg/kg/day): 2/6; inhibition in vivo at 100 mg/kg (Sarcoma 180; [3]): 39.8%
NCC(=O)NC[C@@H]1CN2C(=O)C[C@H]2O1 (relative stereo) [Example 43, (3RS,5RS)-3-N-(Aminoacetyl)aminomethyl-4-oxa-1-azabicyclo[3.2.0]heptan-7-one hydrochloride]	0.429	0/6	0/6	58.9	72.1	0/6	57	Mortality in 12 days (Sarcoma 180; 6.3 mg/kg/day): 0/6; inhibition in vivo at 6.3 mg/kg (Sarcoma 180; Mus musculus, Sarcoma-180, ip, 288 h, 6.3 mg/kg/day, tumor s.c., tumor weight day 12, read-out: % Inhibition of tumor growth): 48.7%
CC(C)[C@H](N)C(=O)N[C@H](C(=O)OCC1CN2C(=O)CC2O1)C(C)C (stereo partly drawn) [Example 56B, (3RS,5SR)-3-[L-2-N-(L-2-Amino-3-methylbutyryl)amino-3-methylbutyryl]oxymethyl-4-oxa-1-azabicyclo-[3.2.0]heptan-7-one hydrochloride]	0.283	0/6	0/6	69.2	73.2	0/6	48.9	
Cl.NCC(=O)OC[C@H]1CN2C(=O)C[C@@H]2O1 (racemic) [Example 39, (3RS,5SR)-3-(Aminoacetyl)oxymethyl-4-oxa-1-azabicyclo[3.2.0]heptan-7-one hydrochloride]	0.613	0/6	0/6	56.7	76.7	0/6	41.9	
O=C(NCCCC[C@H](NC(=O)OCc1ccccc1)C(=O)OCC1CN2C(=O)CC2O1)OCc1ccccc1 (stereo partly drawn) [Example 77A, (3RS,5SR)-3-(L-2,6-N-Dibenzyloxycarbonylaminohexanoyl)oxymethyl-4-oxa-1-azabicyclo[3.2.0]heptan-7-one]	1.18 (≈ 2.19 µM)		0/6		39.1			Mortality in 12 days (Sarcoma 180; 100 mg/kg/day): 2/6; inhibition in vivo at 100 mg/kg (Sarcoma 180; [3]): 67.3%
O=C(NC[C@@H]1CN2C(=O)C[C@H]2O1)C1CCCCC1 (racemic) [Example 6, (3RS,5RS)-3-(N-Cyclohexylcarbonylaminomethyl)-4-oxa-1-azabicyclo[3.2.0]heptan-7-one]	0.073 (≈ 0.289 µM)							Mortality in 12 days (Sarcoma 180; 20 mg/kg/day): 0/6; Mortality in 12 days (Sarcoma 180; 40 mg/kg/day): 0/6; Mortality in 12 days (Sarcoma 180; 80 mg/kg/day): 0/6; inhibition in vivo at 20 mg/kg (Sarcoma 180; Mus musculus, Sarcoma-180, ip, 288 h, 20 mg/kg/day, tumor s.c., tumor weight day 12, read-out: % Inhibition of tumor growth): 32.1%; inhibition in vivo at 40 mg/kg (Sarcoma 180; Mus musculus, Sarcoma-180, ip, 288 h, 40 mg/kg/day, tumor s.c., tumor weight day 12, read-out: % Inhibition of tumor growth): 35.7%; inhibition in vivo at 80 mg/kg (Sarcoma 180; Mus musculus, Sarcoma-180, ip, 288 h, 80 mg/kg/day, tumor s.c., tumor weight day 12, read-out: % Inhibition of tumor growth): 43.3%
N[C@H](CCC(=O)OC[C@H]1CN2C(=O)C[C@@H]2O1)C(=O)O (mixture of isomers) [Example 68B, (3RS,5SR)-3-(D-4-Amino-4-carboxybutyryl)oxymethyl-4-oxa-1-azabicyclo[3.2.0]heptan-7-one]	0.189	0/6	3/6	69.7	80.3	0/6	49.1	
CC(C)[C@H](N)C(=O)N[C@@H](C)C(=O)OCC1CN2C(=O)CC2O1 (stereo partly drawn) [Example 49B, (3RS,5SR)-3-[L-2-N-(L-2-Amino-3-methylbutyryl)aminopropanoyl]oxymethyl-4-oxa-1-azabicyclo[3.2.0]heptan-7-one hydrochloride]	0.537	0/6	0/6	55.7	71			
